Usually IC50 stands for the concentration that gives 50% inhibition.

The values that follow come from patent US20150376196A1, “4-SUBSTITUTED PYRROLO- AND PYRAZOLO-DIAZEPINES” (BAYER PHARMA AKTIENGESELLSCHAFT, priority 2013, published 2015).

The test system of one test is MOLP-8 cells. Briefly: Cell proliferation assay (alamarBlue), MOLP-8. It counts as cell-based. Particulars: Homo sapiens, Multiple myeloma, 120 hours, inhibition of cell proliferation. As for the experimental part: (§1) In accordance with the invention, the ability of the substances to inhibit cell proliferation was determined Cell viability was determined by means of the alamarBlue® reagent (Invitrogen) in a Victor X3 Multilabel Reader (Perkin Elmer). The excitation wavelength was 530 nm and the emission wavelength […].
The MOLP-8 cells (DSMZ, ACC 569) were sown at a concentration of 4000 cells/well in 100 μl of growth medium (RPMI1640, 20% FCS) on 96-well microtitre plates.
(§2) The MDA-MB-231 cells (DSMZ, ACC 732) were sown at a concentration of 4000 cells/well in 100 μl of growth medium (DMEM/Ham's F12 medium, 10% FCS) on 96-well microtitre plates. After overnight incubation at 37° C., the fluorescence values (CI values) were determined. Then the plates were treated with various substance dilutions (1E-5 M, 3E-6 M, 1E-6 M, 3E-7 M, 1E-7 M, 3E-8 M, 1E-8 M) and incubated at 37° C. for 72 (MV-4-11, LOX-IMVI cells), 96 (MOLM-13, B16F10, […] cells), 120 (MOLP-8, KMS-12-PE cells) or 168 (LAPC-4 cells) hours. Subsequently, the fluorescence values were determined (CO values). For the data analysis, the CI values were subtracted from the CO values and the results were compared between cells which had been treated with various dilutions of the substance or only with buffer solution. The ICso values (substance concentration needed for 50% inhibition of cell proliferation) were calculated therefrom.
(§3) The substances were tested in the cell lines in Table 1, which represent the indications specified by way of example: […]
On the technique in general: Alamar Blue is a resazurin reagent that responds to reducing activity.

Another test concerns the target T1, BRD4 (BD1) (Homo sapiens, UniProt O60885).
T1 construct: amino acids 67-152, longer constructs also being possible, preferably amino acids 44-168; made in house; host or cells: E. coli
Briefly: Binding assay BRD4/acetylated peptide H4 (TR-FRET protein-protein interaction assay). The text has this:
To assess the BRD4 binding strength of the substances described in this application, the ability thereof to inhibit the interaction between BRD4 (BD1) and acetylated histone H4 in a dose-dependent manner was quantified.
For this purpose, a time-resolved fluorescence resonance energy transfer (TR-FRET) assay was used, which measures the binding between N-terminally His6-tagged BRD4 (BD1) (amino acids 67-152, longer constructs also being possible, preferably amino acids 44-168) and a synthetic acetylated histone H4 (Ac-H4) peptide with sequence GRGK(Ac)GGK(Ac)GLGK(Ac)GGAK(Ac)RHGSGSK-biotin. The recombinant BRD4 protein produced in-house according to Filippakopoulos et al., Nature, 2010, 468:1119-1123 was expressed in E. coli and purified by means of (Ni-NTA) affinity and (Sephadex G-75) size exclusion chromatography. The Ac-H4 peptide can be purchased, for example, from Biosyntan (Berlin, Germany).
In the assay, typically 11 different concentrations of each substance (0.1 nM, 0.33 nM, 1.1 nM, 3.8 nM, 13 nM, 44 nM, 0.15 μM, 0.51 μM, 1.7 μM, 5.9 μM and 20 μM) were analysed as duplicates on the same microtitre plate. For this purpose, 100-fold concentrated solutions in DMSO were prepared by serial dilutions (1:3.4) of a 2 mM stock solution into a clear, 384-well microtitre plate (Greiner Bio-One, Frickenhausen, Germany). From this, 50 nl were transferred into a black test plate (Greiner Bio-One, Frickenhausen, Germany). The test was started by the addition of 2 μl of a 2.5-fold concentrated BRD4 solution (final concentration typically 10 nM in the 5 μl of reaction volume) in aqueous assay buffer [50 mM HEPES pH 7.5, 50 mM sodium chloride (NaCl), 0.25 mM CHAPS and 0.05% serum albumin (BSA)] to the substances in the test plate. This was followed by a 10-minute incubation step at 22° C. for the pre-equilibration of putative complexes between BRD4 and the substances.
The mixture was then incubated in the dark at 22° C. for one hour and then at 4° C. for at least 3 hours and for no longer than overnight. The formation of BRD4/Ac-H4 complexes was determined by the measurement of the resonance energy transfer from the streptavidin-Eu cryptate to the anti-6His-XL665 antibody present in the reaction. For this purpose, the fluorescence emission was measured at 620 nm and 665 nm after excitation at 330-350 nm in a TR-FRET measuring instrument, for example a Rubystar or Pherastar (both from BMG Lab Technologies, Offenburg, Germany) or a Viewlux (Perkin-Elmer). The ratio of the emissions at 665 nm and at 622 nm was taken as an indicator of the amount of BRD4/Ac-H4 complexes formed.
The data (ratios) obtained were normalized, with 0% inhibition corresponding to the mean from the measurements for a set of controls (typically 32 data points) in which all the reagents were present. In these, in place of test substances, 50 nl of DMSO (100%) were used Inhibition of 100% corresponded to the mean from the measurements for a set of controls (typically 32 data points) in which all the reagents except BRD4 were present. The IC50 was determined by regression analysis based on a 4-parameter equation (minimum, maximum, IC50, Hill; Y=max+(min−max)/(1+(X/IC50)^Hill)).
A general note: In TR-FRET formats the signal depends on donor and acceptor labels being close together.

The test system of the next test is MOLM-13 cells. The experiment in a line: Cell proliferation assay (alamarBlue), MOLM-13. It counts as cell-based. Particulars: Homo sapiens, Leukaemia, 96 hours, inhibition of cell proliferation. How it is done:
as §1
The MOLM-13 cells (DSMZ, ACC 554) were sown at a concentration of 4000 cells/well in 100 μl of growth medium (RPMI1640, 10% FCS) on 96-well microtitre plates.
as §2, §3

Another test relates to B16F10 cells. The experiment in a line: Cell proliferation assay (alamarBlue), B16F10. Particulars: Mus musculus, B16-F10, Melanoma (BRAF wild-type), 96 hours, inhibition of cell proliferation. The test is classed as cell-based. As for the experimental part: as §1
The B16F10 cells (ATCC, CRL-6475) were sown at a concentration of 300-500 cells/well in 100 μl of growth medium (DMEM with phenol red, 10% FCS) on 96-well microtitre plates.
as §2, §3

A further test has as its system LAPC-4 cells. The experiment in a line: Cell proliferation assay (alamarBlue), LAPC-4. The test is classed as cell-based. Particulars: Homo sapiens, LAPC4, Prostate, 1 nM methyltrienolone, 168 hours, inhibition of cell proliferation. How it is done:
as §1
The LAPC-4 cells (ATCC, PTA-1441TM) were sown at a concentration of 4000 cells/well in 100 μl of growth medium (RPMI1640, 2 mM L-glutamine, 10% cFCS) on 96-well microtitre plates. One day later, the LAPC-4 cells were treated with 1 nM methyltrienolone and various substance dilutions.
as §2, §3

Setting [1] is: BRD4 (BD1) / acetylated histone H4 peptide, TR-FRET, read-out: IC50 (BRD4).

Read-outs that look alike come from different tables or passages of the source.

With `CCc1noc(C[C@@H]2N=C(c3ccc(Cl)cc3)c3c(cn(C)c3C)-n3c(C)nnc32)n1` [Example 28, (4S)-6-(4-Chlorophenyl)-1,7,8-trimethyl-4-[(3-ethyl-1,2,4-oxadiazol-5-yl)methyl]-4,8-dihydropyrrolo[3,4-f][1,2,4]triazolo[4,3-a][1,4]diazepine], the 50% inhibitory concentration (IC50) came out at 40 nM in the test on MOLP-8 cells, 30 nM on BRD4 (BD1) (setting [1]) and 70 nM with MOLM-13 cells.
Take `Cc1c2c(cn1C)-n1c(C)nnc1[C@H](CC(=O)N1CCC(=O)C1)N=C2c1ccc(Cl)cc1` [Example 12]: the IC50 is 110 nM at BRD4 (BD1) (setting [1]), 600 nM in the test with B16F10 cells, 480 nM in the test on MOLM-13 cells and 220 nM with LAPC-4 cells.
On to `Cc1c2c(cn1C)-n1c(C)nnc1[C@H](Cc1nc(C(C)C)no1)N=C2c1ccc(Cl)cc1` [Example 30, (4S)-6-(4-Chlorophenyl)-1,7,8-trimethyl-4-{[3-(propan-2-yl)-1,2,4-oxadiazol-5-yl]methyl}-4,8-dihydropyrrolo[3,4-f][1,2,4]triazolo[4,3-a][1,4]diazepine], for which the results for the IC50 in the test with MOLP-8 cells, on BRD4 (BD1) (setting [1]) and in the test with MOLM-13 cells were 50 nM, 30 nM and 70 nM, respectively.
Turning to `COC(=O)C[C@@H]1N=C(c2ccc(Cl)cc2)c2nn(C)cc2-n2c(C)nnc21` [Example 6, 2-[(4S)-6-(4-Chlorophenyl)-1,8-dimethyl-4,8-dihydropyrazolo[3,4-f][1,2,4]triazolo[4,3-a][1,4]diazepin-4-yl]acetic acid methyl ester], the IC50 was 450 nM in the test on MOLP-8 cells; 140 nM at BRD4 (BD1); 550 nM with B16F10 cells; 450 nM in the test on MOLM-13 cells; 250 nM in the test on LAPC-4 cells.
In the case of `Cc1nnc2n1-c1cn(C)nc1C(c1ccc(Cl)cc1)=NC2CC(=O)N1CCS(=O)(=O)CC1` (stereo not shown) [Example 14, 2-[6-(4-Chlorophenyl)-1,8-dimethyl-4,8-dihydropyrazolo[3,4-f][1,2,4]triazolo[4,3-a][1,4]diazepin-4-yl]-1-(1,1-dioxidothiomorpholin-4-yl)ethanone], the IC50 was 4000 nM with MOLP-8 cells, 640 nM at BRD4 (BD1) (setting [1]) and 3460 nM with MOLM-13 cells.
On to `COC(=O)C[C@@H]1N=C(c2ccc(Cl)cc2)c2c(cnn2C)-n2c(C)nnc21` [Example 7, 2-[(4S)-6-(4-Chlorophenyl)-1,7-dimethyl-4,7-dihydropyrazolo[3,4-f][1,2,4]triazolo[4,3-a][1,4]diazepin-4-yl]acetic acid methyl ester], for which the IC50 in the test on MOLP-8 cells was 450 nM; on BRD4 (BD1), 230 nM; in the test on MOLM-13 cells, 740 nM.
Regarding `Cc1c2c(cn1C)-n1c(C)nnc1[C@H](CC(=O)OC(C)(C)C)N=C2c1ccc(Cl)cc1` [Example 3], the 50% inhibitory concentration (IC50) with MOLP-8 cells was found to be 190 nM; at BRD4 (BD1) (setting [1]), 30 nM; in the test on B16F10 cells it was 190 nM; in the test with MOLM-13 cells it was 210 nM; in the test with LAPC-4 cells, 100 nM.
Regarding `Cc1c2c(cn1C)-n1c(C)nnc1[C@H](CC(=O)N1CCS(=O)(=O)CC1)N=C2c1ccc(Cl)cc1` [Example 8, (−)-2-[(4S)-6-(4-Chlorophenyl)-1,7,8-trimethyl-4,8-dihydropyrrolo[3,4f][1,2,4]triazolo[4,3-a][1,4]diazepin-4-yl]-1-(1,1-dioxidothiomorpholino)ethan-1-one], the IC50 was determined as 440 nM with MOLP-8 cells; 100 nM on BRD4 (BD1) (setting [1]); 670 nM with B16F10 cells; 560 nM with MOLM-13 cells; 360 nM in the test on LAPC-4 cells.
`Cc1c2c(cn1C)-n1c(C)nnc1[C@H](CC(=O)Nc1ccc3c(c1)CC(=O)N3)N=C2c1ccc(Cl)cc1` [Example 13, 2-[(4S)-6-(4-Chlorophenyl)-1,7,8-trimethyl-4,8-dihydropyrrolo[3,4-f][1,2,4]triazolo[4,3-a][1,4]diazepin-4-yl]-N-(2-oxo-2,3-dihydro-1H-indol-5-yl)acetamide]: the IC50 in the test on MOLP-8 cells was found to be 220 nM; at BRD4 (BD1) (setting [1]), 40 nM; in the test with B16F10 cells, 330 nM; in the test on MOLM-13 cells, 190 nM; in the test on LAPC-4 cells it was 90 nM.
Consider `Cc1noc(C[C@@H]2N=C(c3ccc(Cl)cc3)c3c(cn(C)c3C)-n3c(C)nnc32)n1` [Example 26, (4S)-6-(4-Chlorophenyl)-1,7,8-trimethyl-4-[(3-methyl-1,2,4-oxadiazol-5-yl)methyl]-4,8-dihydropyrrolo[3,4-f][1,2,4]triazolo[4,3-a][1,4]diazepine], for which the figures for the half-maximal inhibitory concentration (IC50) with MOLP-8 cells, at BRD4 (BD1) (setting [1]) and in the test with MOLM-13 cells were 50 nM, 20 nM and 80 nM, respectively.
As for `Cc1c2c(cn1C)-n1c(C)nnc1[C@H](CC(=O)N(C)CC1(C)COC1)N=C2c1ccc(Cl)cc1` [Example 11, (−)-2-[(4S)-6-(4-Chlorophenyl)-1,7,8-trimethyl-4,8-dihydropyrrolo[3,4f][1,2,4]triazolo[4,3-a][1,4]diazepin-4-yl]-N-methyl-N-[(3-methyloxetan-3-yl)methyl]acetamide], the 50% inhibitory concentration (IC50) stood at 220 nM on BRD4 (BD1) (setting [1]), 1400 nM in the test on B16F10 cells, 1990 nM with MOLM-13 cells and 810 nM with LAPC-4 cells.
Consider `Cc1c2c(cn1C)-n1c(C)nnc1[C@H](CC(=O)N1CC(Oc3ccccc3)C1)N=C2c1ccc(Cl)cc1` [Example 20, (−)-2-[(4S)-6-(4-Chlorophenyl)-1,7,8-trimethyl-4,8-dihydropyrrolo[3,4f][1,2,4]triazolo[4,3-a][1,4]diazepin-4-yl]-1-(3-phenoxyazetidin-1-yl)ethanone], for which the IC50 at BRD4 (BD1) (setting [1]) amounted to 60 nM; in the test with MOLM-13 cells, 920 nM; with LAPC-4 cells, 410 nM.
